What all share (assay): In vitro antibacterial activity, agar dilution MIC
What all share (assay type): cell-based
(Agar dilution tests growth on a series of plates holding different concentrations.)

One test has as its system Escherichiacoli JUHL. Conditions: code QQ: Escherichiacoli JUHL; BHI agar, 35-37° C., 20 to 24 hours; unit assumed. The protocol:
(§1) Representative compounds of the present invention were assayed in vitro for antibacterial activity as follows: Twelve petri dishes containing successive aqueous dilutions of the test compound mixed with 10 mL of sterilized Brain Heart Infusion (BHI) agar (Difco 0418-01-5) were prepared. Each plate was inoculated with 1:100 (or 1:10 for slow-growing strains, such as Micrococcus and Streptococcus) dilutions of up to 32 different microorganisms, using a Steers replicator block. The inoculated plates were incubated at 35-37° C. for 20 to 24 hours. In addition, a control plate, using BHI agar containing no test compound, was prepared and incubated at the beginning and end of each test.
(§2) An additional plate containing a compound having known susceptibility patterns for the organisms being tested and belonging to the same antibiotic class as the test compound was also prepared and incubated as a further control, as well as to provide test-to-test comparability. Erythromycin A was used for this purpose.
(§3) After incubation, each plate was visually inspected. The minimum inhibitory concentration (MIC) was defined as the lowest concentration of drug yielding no growth, a slight haze, or sparsely isolated colonies on the inoculum spot as compared to the growth control.

The next test has as its system Escherichiacoli SS. Conditions: code RR: Escherichiacoli SS; BHI agar, 35-37° C., 20 to 24 hours; unit assumed. The protocol:
as §1, §2, §3

Test [1] relates to Nocardia Asteroides ATCC 99700. The note with it: code VV: Nocardia Asteroides ATCC 99700; BHI agar, 35-37° C., 20 to 24 hours; unit assumed. As for the experimental part: as §1, §2, §3
Test [2] has as its system Streptococcus Pneumonia GYR 1171. Conditions: code YY: Streptococcus Pneumonia GYR 1171; BHI agar, 35-37° C., 20 to 24 hours; unit assumed. The protocol:
as §1, §2, §3

The subject of test [3] is Streptococcus pyogenes EES61. The note with it: code LL: Streptococcus pyogenes EES61; BHI agar, 35-37° C., 20 to 24 hours; unit assumed. The protocol: as §1, §2, §3
In test [4] the test system is Staphylococcus aureus ATCC 6538P. Conditions: code AA: Staphylococcus aureus ATCC 6538P; BHI agar, 35-37° C., 20 to 24 hours; unit assumed. As for the experimental part: as §1, §2, §3
Test [5] deals with Streptococcus pyogenes 930. Conditions: code MM: Streptococcus pyogenes 930; BHI agar, 35-37° C., 20 to 24 hours; unit assumed. As for the experimental part:
as §1, §2, §3

Test [6] concerns Streptococcus agalactiae CMX 508. The note with it: code KK: Streptococcus agalactiae CMX 508; BHI agar, 35-37° C., 20 to 24 hours; unit assumed. The protocol: as §1, §2, §3
For test [7], the system named is Streptococcus bovis A-5169. The note with it: code JJ: Streptococcus bovis A-5169; BHI agar, 35-37° C., 20 to 24 hours; unit assumed. The protocol: as §1, §2, §3
Test [8] has as its system Haemophilislnfluenzae DILL AMP R. The note with it: code WW: Haemophilislnfluenzae DILL AMP R; BHI agar, 35-37° C., 20 to 24 hours; unit assumed. The protocol:
as §1, §2, §3

The subject of test [9] is Staphylococcus aureus NCTC 10649M. Conditions: code EE: Staphylococcus aureus NCTC 10649M; BHI agar, 35-37° C., 20 to 24 hours; unit assumed. As for the experimental part:
as §1, §2, §3

Test [10] deals with Staphylococcus aureus A-5177. The note with it: code BB: Staphylococcus aureus A-5177; BHI agar, 35-37° C., 20 to 24 hours; unit assumed. As for the experimental part:
as §1, §2, §3

The subject of test [11] is Staphylococcus aureus A-5278. The note with it: code CC: Staphylococcus aureus A-5278; BHI agar, 35-37° C., 20 to 24 hours; unit assumed. The protocol: as §1, §2, §3
Test [12] has as its system Mycobacterium smegmatis ATCC 114. The note with it: code UU: Mycobacterium smegmatis ATCC 114; BHI agar, 35-37° C., 20 to 24 hours; unit assumed. As for the experimental part: as §1, §2, §3
Test [13] has as its system Streptococcus Pneumonia 5649. The note with it: code ZA: Streptococcus Pneumonia 5649; BHI agar, 35-37° C., 20 to 24 hours; unit assumed. The protocol: as §1, §2, §3
Test [14] concerns Streptococcus pyogenes PIU 2548. Conditions: code NN: Streptococcus pyogenes PIU 2548; BHI agar, 35-37° C., 20 to 24 hours; unit assumed. As for the experimental part: as §1, §2, §3
Test [15] relates to Staphylococcus epidermidis 3519. Conditions: code HH: Staphylococcus epidermidis 3519; BHI agar, 35-37° C., 20 to 24 hours; unit assumed. As for the experimental part: as §1, §2, §3
Test [16] deals with Micrococcusluteus ATCC 4698. The note with it: code PP: Micrococcusluteus ATCC 4698; BHI agar, 35-37° C., 20 to 24 hours; unit assumed. As for the experimental part:
as §1, §2, §3

The subject of test [17] is Streptococcus Pneumonia ATCC 6303. Conditions: code XX: Streptococcus Pneumonia ATCC 6303; BHI agar, 35-37° C., 20 to 24 hours; unit assumed. As for the experimental part:
as §1, §2, §3

The subject of test [18] is Staphylococcus aureus 1775. Conditions: code GG: Staphylococcus aureus 1775; BHI agar, 35-37° C., 20 to 24 hours; unit assumed. The protocol: as §1, §2, §3
A further test deals with Candida albicans CCH 442. The note with it: code TT: Candida albicans CCH 442; BHI agar, 35-37° C., 20 to 24 hours; unit assumed. As for the experimental part:
as §1, §2, §3

The test system of test [19] is Streptococcus Pneumonia 5979. Conditions: code ZZ: Streptococcus Pneumonia 5979; BHI agar, 35-37° C., 20 to 24 hours; unit assumed. The protocol: as §1
An additional plate containing a compound having known susceptibility patterns for the organisms being tested and belonging to the same antibiotic class as the test compound was also prepared and incubated as a further control, as well as to provide test-to-test comparability.
as §3

Structures are written as SMILES. Bounds are passed on as bounds.

As for `CC[C@H]1OC(=O)[C@H](C)[C@@H](O[C@H]2C[C@@](C)(OC)[C@@H](O)[C@H](C)O2)[C@H](C)[C@@H](O[C@@H]2O[C@H](C)C[C@H](N(C)C)[C@H]2O)[C@](C)(O)C[C@@H](C)C(=O)[C@H](C)[C@@H](O)[C@]1(C)O` [Ery. A, Erythromycin A, reference compound], the Antibacterial Activity (MIC) with Escherichiacoli JUHL is over 100 µg/mL; in the test with Escherichiacoli SS, 0.78 µg/mL; in test [1], 0.1 µg/mL; in test [2], 0.06 µg/mL; in test [3], 0.05 µg/mL; in test [4], 0.2 µg/mL. Also, the Antibacterial Activity (MIC) in [5] was over 100 µg/mL; in [6], 0.05 µg/mL; in test [7], 0.02 µg/mL; in test [8], 4 µg/mL; in [9] it was 0.39 µg/mL; in [10], 3.1 µg/mL. Further, the Antibacterial Activity (MIC) in test [11] is over 100 µg/mL; in test [12], 3.1 µg/mL; in [13] it was 16 µg/mL; in test [14] it was 6.2 µg/mL; in test [15], 0.39 µg/mL; in test [16], 0.2 µg/mL. Besides, the Antibacterial Activity (MIC) was 0.06 µg/mL in [17], over 100 µg/mL in test [18] and over 100 µg/mL with Candida albicans CCH 442.

Regarding `C=CCOC1(C)CC(C)CNC(C)C(O)C(C)(O)C(CC)OC(=O)C(C)C(OC2CC(C)(OC)C(O)C(C)O2)C(C)C1OC1OC(C)CC(N(C)C)C1O` (stereo not drawn) [Example 2, Compound of formula (I): R^1 is —CH2CH═CH2, R^4 is hydrogen, R^5 is hydrogen, R^6 is hydrogen, R^7 is hydrogen, R^8 is hydrogen], the Antibacterial Activity (MIC) amounted to 50 µg/mL in the test on Escherichiacoli JUHL; 0.78 µg/mL in the test with Escherichiacoli SS; 0.1 µg/mL in test [1]; 0.06 µg/mL in [2]; 0.05 µg/mL in test [3]; 0.2 µg/mL in test [4]. Moreover, the Antibacterial Activity (MIC) in test [5] was over 100 µg/mL; in test [6] it was 0.05 µg/mL; in test [7], 0.02 µg/mL; in test [8], 8 µg/mL; in test [9] it was 0.39 µg/mL; in test [10] it was 12.5 µg/mL. Moreover, the Antibacterial Activity (MIC) in test [11] is over 100 µg/mL; in test [12] it was 6.2 µg/mL; in [13], 16 µg/mL; in test [14] it was 6.2 µg/mL; in test [15] it was 0.2 µg/mL; in test [16], 0.39 µg/mL. For the same compound, the Antibacterial Activity (MIC) in [17] is 0.06 µg/mL; in test [18] it was over 100 µg/mL; with Candida albicans CCH 442, over 100 µg/mL; in test [19], over 128 µg/mL.

In the case of `C=CCOC1(C)CC(C)CN(C)C(C)C(O)C(C)(O)C(CC)OC(=O)C(C)C(OC2CC(C)(OC)C(O)C(C)O2)C(C)C1OC1OC(C)CC(N(C)C)C1O` (stereo not drawn) [Example 3, Compound of formula (I): R^1 is —CH2CH═CH2, R^4 is hydrogen, R^5 is hydrogen, R^6 is methyl, R^7 is hydrogen, R^8 is hydrogen], the Antibacterial Activity (MIC) in the test on Escherichiacoli JUHL came to 50 µg/mL; in the test on Escherichiacoli SS, 0.39 µg/mL; in test [1] it was 0.1 µg/mL; in test [2], 0.06 µg/mL; in test [3] it was 0.05 µg/mL; in [4], 0.2 µg/mL. The Antibacterial Activity (MIC) in [5] is over 100 µg/mL; in [6], 0.1 µg/mL; in test [7] it was 0.05 µg/mL; in test [8], 8 µg/mL; in [9], 0.39 µg/mL; in test [10] it was 12.5 µg/mL. Further, the Antibacterial Activity (MIC) in test [11] was over 100 µg/mL; in test [12], 6.2 µg/mL; in [13], 8 µg/mL; in test [14], 6.2 µg/mL; in [15], 0.39 µg/mL; in test [16], 0.39 µg/mL. Also, the Antibacterial Activity (MIC) is 0.06 µg/mL in test [17], over 100 µg/mL in test [18], over 100 µg/mL with Candida albicans CCH 442 and over 128 µg/mL in test [19].

Regarding `C=CCOC1(C)CC(C)CN(C)C(C)C(O)C(C)(O)C(CC)OC(=O)C(C)C(O)C(C)C1OC1OC(C)CC(N(C)C)C1O` (stereo not drawn) [Example 4, Compound of formula (II): R^1 is —CH2CH═CH2, R^2 is hydrogen, R^3 is —OR^13, R^13 is hydrogen, R^4 is hydrogen, R^5 is hydrogen, R^6 is methyl, R^8 is hydrogen], the Antibacterial Activity (MIC) with Escherichiacoli JUHL was 50 µg/mL; in the test on Escherichiacoli SS, 0.78 µg/mL; in [1], 0.05 µg/mL; in test [2], 0.03 µg/mL; in test [3] it was 0.05 µg/mL; in test [4], 0.39 µg/mL. In addition, the Antibacterial Activity (MIC) in test [5] is over 100 µg/mL; in test [6], 0.05 µg/mL; in test [7] it was 0.02 µg/mL; in [8] it was 4 µg/mL; in [9], 0.39 µg/mL; in test [10] it was 6.2 µg/mL. Besides, the Antibacterial Activity (MIC) is over 100 µg/mL in [11]; 6.2 µg/mL in [12]; 8 µg/mL in test [13]; 6.2 µg/mL in test [14]; 0.39 µg/mL in test [15]; 0.39 µg/mL in test [16]. Also, the Antibacterial Activity (MIC) in test [17] is 0.03 µg/mL; in test [18], over 100 µg/mL; with Candida albicans CCH 442 it was over 100 µg/mL; in test [19], over 128 µg/mL.

The values are drawn from US6764996B1, “9a-azalides with antibacterial activity” (Abbott Laboratories, priority 1999, dated 2004).
